These results are taken from ChEMBL document CHEMBL4402546, “Urea Derivatives in Modern Drug Discovery and Medicinal Chemistry” (J Med Chem, 2020).

For one series, the target named is DNA gyrase subunit B (Escherichia coli, UniProt P0AES6). Put plainly: Inhibition of Escherichia coli DNA gyrase B incubated for 60 mins by malachite green dye based spectrometric analysis.
Series [1] in a line: Inhibition of Escherichia coli DNA topoisomerase 4 incubated for 60 mins by malachite green dye based spectrometric analysis.
The target in another series is Protease (Human immunodeficiency virus 1, UniProt Q9YQ12). Put plainly: Inhibition of HIV-1 protease by spectrofluorometric assay.
Series [2] relates to Plasmodium falciparum. Put plainly: Antimalarial activity against Plasmodium falciparum 3D7 incubated for 48 hrs by [3H]-hypoxanthine incorporation assay. Format: functional, organism-based.
The test system of series [3] is Plasmodium falciparum. Put plainly: Antimalarial activity against Plasmodium falciparum Dd2 incubated for 48 hrs by [3H]-hypoxanthine incorporation assay. Format: functional, organism-based.
The next series relates to Plasmodium berghei. Put plainly: Antiparasitic activity against blood stage Plasmodium berghei ANKA infected in ARC mouse assessed as suppression of parasitemia at 32 mg/kg, sc administered twice daily with 6 hrs apart for 4 consecutive days by Giemsa staining based microscopic analysis relative to control.
The target of series [4] is Metabotropic glutamate receptor 5 (Rattus norvegicus, UniProt P31424). Put plainly: Inhibition of rat mGluR5 expressed in HEK293A cells preincubated for 140 secs followed by EC20 glutamate stimulation for 74 secs and subsequent EC80 glutamate addition and measured up to 40 secs by Fluo-4-AM dye based fluorescence assay. Format: cell-based.
Series [5] concerns the target Metabotropic glutamate receptor 1 (Homo sapiens, UniProt Q13255). Put plainly: Inhibition of mGluR1 (unknown origin).
Series [6] has as its target Metabotropic glutamate receptor 2 (Homo sapiens, UniProt Q14416). Put plainly: Inhibition of mGluR2 (unknown origin).
The target in series [7] is Metabotropic glutamate receptor 3 (Homo sapiens, UniProt Q14832). Put plainly: Inhibition of mGluR3 (unknown origin).
For series [8], the target named is Metabotropic glutamate receptor 4 (Homo sapiens, UniProt Q14833). Put plainly: Inhibition of mGluR4 (unknown origin).
Series [9] concerns the target Metabotropic glutamate receptor 7 (Homo sapiens, UniProt Q14831). Put plainly: Inhibition of mGluR7 (unknown origin).
The target of series [10] is Metabotropic glutamate receptor 8 (Homo sapiens, UniProt O00222). Put plainly: Inhibition of mGluR8 (unknown origin).
For series [11], the target named is Serine/threonine-protein kinase B-raf (Homo sapiens, UniProt P15056, V600E). Put plainly: Inhibition of BRAF V600E mutant (unknown origin).
The target in series [12] is RAF proto-oncogene serine/threonine-protein kinase (Homo sapiens, UniProt P04049). Put plainly: Inhibition of c-RAF (unknown origin).
For another series, the system named is LoVo. Put plainly: Antiproliferative activity against human LoVo cells after 72 hrs by CCK8 assay. Format: functional, cell-based. Background: Formazan colour is commonly taken as a measure of viable cells.
The test system of a further series is HT-29. Put plainly: Antiproliferative activity against human HT-29 cells after 72 hrs by CCK8 assay. The format is functional, cell-based. The note with it: HT-29, 72 h.
A short description of series [13]: Half life in schizophrenic patient at 1.5 to 12.5 mg/day. The format is ADME. The note with it: human, in vivo.
The nature of series [14]: Half life in plasma (unknown origin). The format is ADME, cell-free.

Bounds are passed on as bounds.

Sequence of RAF proto-oncogene serine/threonine-protein kinase (P04049 whole entry): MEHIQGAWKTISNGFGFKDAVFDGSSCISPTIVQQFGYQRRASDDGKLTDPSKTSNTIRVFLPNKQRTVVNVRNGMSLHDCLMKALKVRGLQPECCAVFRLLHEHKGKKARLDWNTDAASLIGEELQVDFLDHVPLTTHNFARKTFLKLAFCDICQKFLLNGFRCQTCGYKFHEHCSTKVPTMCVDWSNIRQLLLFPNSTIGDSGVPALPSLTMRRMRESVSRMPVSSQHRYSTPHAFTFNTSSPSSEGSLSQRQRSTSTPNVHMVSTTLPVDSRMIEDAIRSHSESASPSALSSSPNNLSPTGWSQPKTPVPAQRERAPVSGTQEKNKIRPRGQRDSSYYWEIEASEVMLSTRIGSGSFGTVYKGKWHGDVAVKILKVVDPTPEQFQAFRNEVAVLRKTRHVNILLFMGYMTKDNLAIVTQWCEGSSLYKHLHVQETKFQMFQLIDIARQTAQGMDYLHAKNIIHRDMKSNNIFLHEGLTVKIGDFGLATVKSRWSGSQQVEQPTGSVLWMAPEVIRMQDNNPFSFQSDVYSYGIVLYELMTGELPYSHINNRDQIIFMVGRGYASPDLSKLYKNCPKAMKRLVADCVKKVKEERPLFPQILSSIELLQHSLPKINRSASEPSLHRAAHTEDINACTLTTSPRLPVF
Sequence of Metabotropic glutamate receptor 3 (Q14832 whole entry): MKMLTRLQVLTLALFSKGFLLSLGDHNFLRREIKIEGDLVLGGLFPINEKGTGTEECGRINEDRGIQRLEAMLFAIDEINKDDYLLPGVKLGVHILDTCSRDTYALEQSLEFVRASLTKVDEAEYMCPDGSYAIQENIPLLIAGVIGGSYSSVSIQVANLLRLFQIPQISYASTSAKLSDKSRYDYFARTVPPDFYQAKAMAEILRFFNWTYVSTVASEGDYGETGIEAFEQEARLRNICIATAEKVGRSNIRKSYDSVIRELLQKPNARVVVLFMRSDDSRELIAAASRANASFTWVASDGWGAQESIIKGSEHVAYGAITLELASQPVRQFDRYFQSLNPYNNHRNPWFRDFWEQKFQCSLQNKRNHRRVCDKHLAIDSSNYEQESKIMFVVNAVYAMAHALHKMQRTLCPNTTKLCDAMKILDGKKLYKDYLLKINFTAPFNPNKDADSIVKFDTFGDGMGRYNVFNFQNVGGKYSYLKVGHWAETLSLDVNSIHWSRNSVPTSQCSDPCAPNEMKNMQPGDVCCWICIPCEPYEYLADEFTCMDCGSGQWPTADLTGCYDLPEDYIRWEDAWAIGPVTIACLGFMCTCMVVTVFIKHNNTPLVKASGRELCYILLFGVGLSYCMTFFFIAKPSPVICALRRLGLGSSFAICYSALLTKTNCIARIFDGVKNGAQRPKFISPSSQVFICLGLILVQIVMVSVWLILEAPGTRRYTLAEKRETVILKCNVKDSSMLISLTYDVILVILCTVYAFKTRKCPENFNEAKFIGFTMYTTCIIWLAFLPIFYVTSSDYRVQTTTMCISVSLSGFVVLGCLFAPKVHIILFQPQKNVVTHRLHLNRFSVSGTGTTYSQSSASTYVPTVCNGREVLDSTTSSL
Sequence of Protease (Q9YQ12 whole entry): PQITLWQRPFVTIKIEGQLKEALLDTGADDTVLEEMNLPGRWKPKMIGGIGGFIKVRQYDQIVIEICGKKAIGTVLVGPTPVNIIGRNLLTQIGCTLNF
Sequence of Metabotropic glutamate receptor 7 (Q14831 whole entry): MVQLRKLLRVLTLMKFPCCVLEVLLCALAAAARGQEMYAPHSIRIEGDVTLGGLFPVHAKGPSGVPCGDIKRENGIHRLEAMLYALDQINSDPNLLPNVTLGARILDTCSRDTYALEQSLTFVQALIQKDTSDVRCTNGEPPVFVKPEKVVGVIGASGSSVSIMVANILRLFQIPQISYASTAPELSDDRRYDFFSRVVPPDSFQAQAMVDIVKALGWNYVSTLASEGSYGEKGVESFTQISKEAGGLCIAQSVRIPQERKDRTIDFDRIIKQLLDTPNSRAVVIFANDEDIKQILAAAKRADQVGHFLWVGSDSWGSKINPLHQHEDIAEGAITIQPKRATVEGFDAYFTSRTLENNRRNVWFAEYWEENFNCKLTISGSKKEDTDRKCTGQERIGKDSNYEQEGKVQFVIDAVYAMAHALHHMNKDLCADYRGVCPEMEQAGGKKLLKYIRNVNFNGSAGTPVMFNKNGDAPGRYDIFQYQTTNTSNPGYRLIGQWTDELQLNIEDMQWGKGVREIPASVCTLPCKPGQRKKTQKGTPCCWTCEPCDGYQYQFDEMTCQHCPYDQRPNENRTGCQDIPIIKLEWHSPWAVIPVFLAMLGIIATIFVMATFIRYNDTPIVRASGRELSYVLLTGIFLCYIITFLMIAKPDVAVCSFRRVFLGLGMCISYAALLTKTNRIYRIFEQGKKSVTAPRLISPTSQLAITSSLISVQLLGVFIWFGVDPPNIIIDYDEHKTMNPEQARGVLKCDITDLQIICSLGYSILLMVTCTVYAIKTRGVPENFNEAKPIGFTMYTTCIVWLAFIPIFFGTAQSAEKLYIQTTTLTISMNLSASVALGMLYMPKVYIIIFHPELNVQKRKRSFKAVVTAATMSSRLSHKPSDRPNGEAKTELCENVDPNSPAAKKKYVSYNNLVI
Sequence of Metabotropic glutamate receptor 2 (Q14416 whole entry): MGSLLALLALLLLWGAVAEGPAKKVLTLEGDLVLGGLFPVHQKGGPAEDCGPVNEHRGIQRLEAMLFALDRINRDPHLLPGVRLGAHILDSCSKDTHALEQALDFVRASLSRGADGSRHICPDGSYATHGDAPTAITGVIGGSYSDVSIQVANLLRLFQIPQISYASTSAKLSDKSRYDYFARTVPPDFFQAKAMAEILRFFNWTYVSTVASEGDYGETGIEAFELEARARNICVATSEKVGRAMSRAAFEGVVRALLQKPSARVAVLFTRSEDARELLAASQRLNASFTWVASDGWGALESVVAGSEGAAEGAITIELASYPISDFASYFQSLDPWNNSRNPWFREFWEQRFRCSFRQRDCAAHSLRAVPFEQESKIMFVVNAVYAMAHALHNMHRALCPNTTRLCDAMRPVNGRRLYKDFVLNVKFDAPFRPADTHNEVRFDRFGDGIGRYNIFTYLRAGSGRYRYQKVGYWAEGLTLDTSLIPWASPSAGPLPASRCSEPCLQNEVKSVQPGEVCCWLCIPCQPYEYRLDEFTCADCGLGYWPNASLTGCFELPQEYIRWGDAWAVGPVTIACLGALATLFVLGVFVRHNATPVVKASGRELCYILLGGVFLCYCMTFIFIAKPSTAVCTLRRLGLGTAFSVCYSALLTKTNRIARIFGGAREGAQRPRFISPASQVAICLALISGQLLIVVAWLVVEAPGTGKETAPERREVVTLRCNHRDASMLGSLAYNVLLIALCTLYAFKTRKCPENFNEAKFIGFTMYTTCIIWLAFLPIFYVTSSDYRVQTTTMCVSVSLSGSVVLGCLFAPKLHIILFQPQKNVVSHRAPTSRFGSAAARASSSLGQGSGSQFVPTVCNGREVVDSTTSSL
Sequence of Metabotropic glutamate receptor 4 (Q14833 whole entry): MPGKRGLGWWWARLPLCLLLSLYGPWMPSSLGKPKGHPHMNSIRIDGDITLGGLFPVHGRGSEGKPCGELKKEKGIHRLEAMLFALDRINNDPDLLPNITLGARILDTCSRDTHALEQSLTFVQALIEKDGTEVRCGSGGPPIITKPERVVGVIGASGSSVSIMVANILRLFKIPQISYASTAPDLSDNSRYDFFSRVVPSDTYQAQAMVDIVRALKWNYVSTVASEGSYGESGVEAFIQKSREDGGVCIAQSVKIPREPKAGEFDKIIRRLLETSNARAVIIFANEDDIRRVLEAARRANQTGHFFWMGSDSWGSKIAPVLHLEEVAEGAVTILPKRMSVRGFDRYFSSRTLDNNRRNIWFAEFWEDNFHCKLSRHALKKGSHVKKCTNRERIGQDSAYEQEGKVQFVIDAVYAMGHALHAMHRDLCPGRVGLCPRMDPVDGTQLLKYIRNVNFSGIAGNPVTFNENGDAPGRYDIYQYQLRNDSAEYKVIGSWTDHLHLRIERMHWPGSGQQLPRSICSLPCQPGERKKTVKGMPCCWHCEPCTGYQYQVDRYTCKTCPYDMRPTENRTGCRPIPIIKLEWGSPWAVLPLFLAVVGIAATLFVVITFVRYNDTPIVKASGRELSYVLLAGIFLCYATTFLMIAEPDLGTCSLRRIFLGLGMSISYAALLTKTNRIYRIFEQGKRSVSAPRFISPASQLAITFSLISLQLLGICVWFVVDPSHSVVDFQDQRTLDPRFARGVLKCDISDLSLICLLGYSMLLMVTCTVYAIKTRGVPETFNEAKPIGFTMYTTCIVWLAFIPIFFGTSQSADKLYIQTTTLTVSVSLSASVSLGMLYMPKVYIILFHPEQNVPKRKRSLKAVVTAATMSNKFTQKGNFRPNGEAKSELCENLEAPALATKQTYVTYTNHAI

The IC50 is the point on the concentration scale where inhibition reaches its midpoint. A high value points to lower potency. With `CCNC(=O)Nc1nc2cc(-c3cnc(N4CCC(C(=O)O)CC4)nc3)cc(-c3ccccn3)c2s1`, the IC50 against DNA gyrase subunit B is below 199 nM; in [1] it was below 0.1 µg/mL.
As to `CC(C)CN(C[C@@H](O)[C@H](Cc1ccccc1)NC(=O)[C@H](CC(N)=O)NC(=O)c1ccc2ccccc2n1)C(=O)NC(C)(C)C`, the 50% inhibitory concentration (IC50) against Protease stood at 6.3 nM.
Take `CCCCNC(=O)NCCc1c[nH]c2c1C(=O)C1=C(NC=CS1(=O)=O)C2=O`: the values for the IC50 with Plasmodium falciparum [2] and in the series with Plasmodium falciparum [3] were 644 nM and 525 nM, respectively. For the same compound, the Activity with Plasmodium berghei was 26%.
Turning to `N#Cc1cc(F)cc(NC(=O)Nc2ccc(Cl)cn2)c1`, the half-inhibitory concentration (IC50) in [4] is 13 nM; in series [5] it was above 30000 nM; in series [6], above 30000 nM; in [7] it was above 30000 nM; in series [8] it was above 30000 nM; in [9], above 30000 nM. In addition, the IC50 in series [10] was above 30000 nM.
As for `CNC(=O)c1cc(Oc2cccc3nc(NC(=O)Nc4ccc(Cl)c(C(F)(F)F)c4)ccc23)ccn1`, the IC50 amounted to 316 nM in series [11] and 61 nM in series [12].
In the case of `N#Cc1cc(O)ccc1-c1ccc(NC(=O)Nc2ccc(Cl)c(C(F)(F)F)c2)cc1`, the IC50 in the series on LoVo stood at 1500 nM; with HT-29, 1900 nM.
The term half-life denotes the time needed for the level to fall by half in the phase considered. In turn, `CN(C)C(=O)N[C@H]1CC[C@H](CCN2CCN(c3cccc(Cl)c3Cl)CC2)CC1` [CARIPRAZINE] showed a half-life in series [13] of 48 to 120 h.
On to `CC(C)c1nc(CN(C)C(=O)N[C@H](C(=O)N[C@@H](Cc2ccccc2)C[C@H](O)[C@H](Cc2ccccc2)NC(=O)OCc2cncs2)C(C)C)cs1` [RITONAVIR], for which the half-life in series [14] is 1.2 h.
